Measurements published in the supplement of paper PMC11208160.

Assay: recombinant UMI read abundance after kanamycin selection (control-corrected) (log10(CPM+1)); higher = more efficient recombination; extreme values may be limits of the assay; sequences stand for … in AGTGCAGAGAAAATCGGCCAGTTTTCTCTGCCTGCAGTCCGCATGCCGTGGGACCCCTTGGGTTCTAACCTGTTGCCTAGATTTATGCAGCGGACTGCCTTTCTCCCAAAGTGATAAACCGG…AGGTTGGTTTCACT; site = the 11-nt donor
Summary of the method: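 Under IPTG (0.07 mM) plus kanamycin, or without selection, Escherichia coli carrying a UMI-tagged donor and donor-binding-loop pair library and a target plasmid for the IS621 bridge recombinase were plated in two replicates. Recombinant UMIs were PCR-amplified across the donor–target junction and sequenced. Counts were converted to CPM, averaged over replicates, scaled by control-derived factors and reported as log10(CPM+1).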
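Note: IS621 bridge recombinase in Escherichia coli cells against a fixed T5 target plasmid.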

Sequence	recombinant UMI read abundance (log10)
GTTGGGGCATGGACCGGTTTTCCCGGTAATCCGTATTTGCG (site GTTGGGGCTCG)	2.05
GTTGTACCATGGACCGGTTTTCCCGGTAATCCGTATTTGGT (site GTTGTACCTAC)	0
GTTGTACCATGGACCGGTTTTCCCGGTAATCCGTATTTGGT (site GTTGTCCCTAC)	0.0245
GTTGTACCATGGACCGGTTTTCCCGGTAATCCGTATTTGGT (site GTTGTGCCTAC)	0.0127
GTTGTACCATGGACCGGTTTTCCCGGTAATCCGTATTTGGT (site GTTGTTCCTAC)	0
GTTGTGCCATGGACCGGTTTTCCCGGTAATCCGTATTTGGT (site GTTGTACCTAC)	0.00401
GTTGTGCCATGGACCGGTTTTCCCGGTAATCCGTATTTGGT (site GTTGTCCCTAC)	0.0044
GTTGTGCCATGGACCGGTTTTCCCGGTAATCCGTATTTGGT (site GTTGTGCCTAC)	0.0934
GTTGTGCCATGGACCGGTTTTCCCGGTAATCCGTATTTGGT (site GTTGTTCCTAC)	0.0079
GTTGTGGCATGGACCGGTTTTCCCGGTAATCCGTATTTGAG (site GTTGTGGCTCT)	1.71
GTTGTTTCATGGACCGGTTTTCCCGGTAATCCGTATTTGGT (site GTTGTTACTAC)	0.00963
GTTGTTTCATGGACCGGTTTTCCCGGTAATCCGTATTTGGT (site GTTGTTCCTAC)	0.00733
GTTGTTTCATGGACCGGTTTTCCCGGTAATCCGTATTTGGT (site GTTGTTGCTAC)	0.0146
GTTGTTTCATGGACCGGTTTTCCCGGTAATCCGTATTTGGT (site GTTGTTTCTAC)	0.83
GTTTAAACATGGACCGGTTTTCCCGGTAATCCGTATTTGGA (site GTTTAAACTTC)	0.655
GTTTAGGCATGGACCGGTTTTCCCGGTAATCCGTATTTGGC (site GTTTAGGCTGC)	2.08
GTTTGCGCATGGACCGGTTTTCCCGGTAATCCGTATTTGGC (site GTTTGCGCTGC)	2.03
GTTTGTTCATGGACCGGTTTTCCCGGTAATCCGTATTTGAT (site GTTTGTTCTAT)	0.167
GTTTTTCCATGGACCGGTTTTCCCGGTAATCCGTATTTGGT (site GTTATTCCTAC)	0.0038

Sequence	recombinant UMI read abundance (log10)
GTTTTTCCATGGACCGGTTTTCCCGGTAATCCGTATTTGGT (site GTTCTTCCTAC)	0.00946
GTTTTTCCATGGACCGGTTTTCCCGGTAATCCGTATTTGGT (site GTTGTTCCTAC)	0.0239
GTTTTTCCATGGACCGGTTTTCCCGGTAATCCGTATTTGGT (site GTTTTTCCTAC)	0
TAAAAGCCATGGACCGGTTTTCCCGGTAATCCGTATTTGAG (site TAAAAGCCTCT)	0.525
TAAAATCCATGGACCGGTTTTCCCGGTAATCCGTATTTGTA (site TAAAATCCTTA)	0
TAAAATCCATGGACCGGTTTTCCCGGTAATCCGTATTTGTA (site TAAACTCCTTA)	1.43
TAAAATCCATGGACCGGTTTTCCCGGTAATCCGTATTTGTA (site TAAAGTCCTTA)	0.431
TAAAATCCATGGACCGGTTTTCCCGGTAATCCGTATTTGTA (site TAAATTCCTTA)	0
TAAACCCCATGGACCGGTTTTCCCGGTAATCCGTATTTGTA (site TAAACCCCTTA)	1.33
TAAACTCCATGGACCGGTTTTCCCGGTAATCCGTATTTGTA (site TAAAATCCTTA)	0.534
TAAACTCCATGGACCGGTTTTCCCGGTAATCCGTATTTGTA (site TAAACTCCTTA)	1.32
TAAACTCCATGGACCGGTTTTCCCGGTAATCCGTATTTGTA (site TAAAGTCCTTA)	0.221
TAAACTCCATGGACCGGTTTTCCCGGTAATCCGTATTTGTA (site TAAATTCCTTA)	0
TAAAGTCCATGGACCGGTTTTCCCGGTAATCCGTATTTGTA (site AAAAGTCCTTA)	2.17
TAAAGTCCATGGACCGGTTTTCCCGGTAATCCGTATTTGTA (site CAAAGTCCTTA)	0.47
TAAAGTCCATGGACCGGTTTTCCCGGTAATCCGTATTTGTA (site GAAAGTCCTTA)	0.00467
TAAAGTCCATGGACCGGTTTTCCCGGTAATCCGTATTTGTA (site TAAAATCCTTA)	0
TAAAGTCCATGGACCGGTTTTCCCGGTAATCCGTATTTGTA (site TAAACTCCTTA)	0.531
